In the METLIN SMRT retention time set (Domingo-Almenara et al. 2019):

Assay: gradient 5% acetonitrile 3 min, to 50% in 2 min, to 85% in 15 min, held 3 min, 100 µL/min
Details: column: Zorbax Extend-C18 2.1 x 50 mm; eluents: water / acetonitrile, 0.1% formic acid
How it was run: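 Retention times of pure standards were taken from adduct peaks that were selected by computer and manually inspected. Over 3 months, mixtures of ~100 molecules were run by HPLC–quadrupole time-of-flight mass spectrometry in positive and negative ionization mode. The Zorbax Extend-C18 column (2.1 × 50 mm, 1.8 μm) ran at 100 μL/min in water and acetonitrile, each containing 0.1% formic acid, with 40 μL dead volume and 900 μL dwell volume.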

RP-LC retention time [s]	Structure (SMILES)
902	CCc1ccccc1S(=O)(=O)N(C)CC1CCOCC1
822	COc1ccc(CC(C)(O)CNC(=O)c2cc(Br)ccc2Cl)cc1 (stereo not given)
547	CC(=O)Nc1ccc(S(=O)(=O)NCC2CCN(Cc3cccs3)CC2)c(C)c1
649	CCCc1cc(N2CCN(C(=O)Cc3ccsc3)CC2)nc2nnc(CC)n12
550	CN(C)C(CNC(=O)Cc1cccs1)c1ccccc1Cl (stereo not given)
573	Cc1nc(C)c(C(=O)N2CC[C@H](CO)[C@H](NC(=O)C3CC3)C2)s1
1060	Cc1cccc(Sc2nccnc2N2CCCC(C(=O)NCc3ccc(C)o3)C2)c1 (stereo not given)
1270	CCOC(=O)c1cnc(N2CCN(c3ccc(F)cc3)CC2)c2ccccc12
1090	Cc1nc2nc(-c3ccc(C(C)(C)C)cc3)nn2c(C)c1CC(=O)N1CCC(C)CC1
706	O=C(CSc1ncnc2ccccc12)NCCc1ccccc1
658	COc1ccc(-c2cc(C(=O)O)c3ccccc3n2)cc1OC
749	COC(=O)c1cc(OCC(=O)NCc2ccc3c(c2)OCO3)c2cc(OC)ccc2n1
694	Cc1ccnc(N2CCCC(C(=O)NCc3ccc(C)o3)C2)n1 (stereo not given)
1000	Cc1cccc(-c2noc(Cn3c(=O)n(-c4ccccc4)c(=O)c4sccc43)n2)c1
542	CCCNc1cc(N2CCC(CCC(=O)NCCc3cccnc3)CC2)ncn1
649	COc1cc(C)c(C)cc1S(=O)(=O)N1CCN(c2ccc(-c3cccnc3)nn2)CC1
704	CCOC(=O)c1c(CN2CCOCC2)n(C)c2cc(Br)c(OC(C)=O)cc12
874	O=C(NCc1cccc(Br)c1)C(=O)c1ccc[nH]1
814	COc1ccccc1Cc1noc(C2CN(C(=O)c3ccc4nsnc4c3)C2)n1
784	O=CN1CC/C(=C/c2ccc3c(c2)OCO3)C1=O
638	COc1ccc(CCS(=O)(=O)NCC2CCN(C(=O)c3cccn(C)c3=O)CC2)cc1
936	O=C(Cc1cccn1-c1ccccc1)NCc1cc(F)ccc1F

RP-LC retention time [s]	Structure (SMILES)
893	COc1cccc(-n2ccn3cc(-c4ccc(Br)cc4)nc3c2=O)c1
685	O=C(CCC1CCN(S(=O)(=O)c2ccccc2F)CC1)NC1CCS(=O)(=O)C1 (stereo not given)
693	CCn1nccc1C(=O)Nc1ccc2c(c1)OCO2
796	CCCN1C(=O)c2c(C(=O)NCc3ccc(F)cc3)ncn2CC1(C)C(=O)NC1CCCC1 (stereo not given)
660	CC(C)NC(=O)C1CCCN(c2nc3ncn(CC(=O)NCc4cccs4)c(=O)c3s2)C1 (stereo not given)
668	Cc1ccc(-c2cc(C(N)=O)[nH]n2)c(C)c1
894	Cc1cc(NC(=O)Nc2cc(F)ccc2F)no1
1020	C=CCn1c(=O)c2ccccc2n(Cc2nc(-c3ccccc3Cl)no2)c1=O
1130	Cc1cc(-c2c(C)sc(C)c2S(=O)(=O)NCCc2ccc(Cl)cc2)n[nH]1
674	COc1ccccc1-c1nc(-c2ccc3ncn(C)c3c2)no1
765	COCc1nncn1C1CCN(S(=O)(=O)c2ccc(Cl)c(C)c2)CC1
1040	CC1Oc2ccc(-c3csc(NC(=O)C4CCCCC4)n3)cc2N(C)C1=O (stereo not given)
673	O=C(NCCN1CCCC1)c1ccc(-c2noc(-c3ccccc3)n2)s1
1180	O=c1c2scc(-c3ccc(F)cc3)c2ncn1Cc1ccc(Br)cc1
620	CCOc1ccccc1CN1C[C@@H](CO)[C@H](c2ccccn2)C1
661	O=C(Nc1ccc(F)cc1F)c1ncccn1
990	Cc1sc(-c2cc(C(F)(F)F)[nH]n2)cc1S(=O)(=O)NCCc1cccs1
961	COc1cccc(-c2noc(Cc3nnc(-c4cccc(C)c4)o3)n2)c1OC
643	COCCN1C(=O)c2ccccc2C(C(=O)NCCCN2CCCC(C)C2)C1c1cccs1 (stereo not given)
722	COc1ccc(S(=O)(=O)Nc2ccc3c(c2)N(C(C)=O)CC3)c(C)c1
888	Cc1ccc(C)c(CNC(=O)C2CCc3nc(N4CCOCC4)ncc3C2)c1 (stereo not given)
823	COc1ccc(Cl)cc1NS(=O)(=O)c1cc(-c2c(C)noc2NC(C)=O)ccc1OC

RP-LC retention time [s]	Structure (SMILES)
1180	CC(C)c1ccc(-c2noc(N3CCC(C(=O)NC4CCCCC4)CC3)n2)cc1
663	Cc1c(-c2cccc(NC(=O)C3CCCCC3)c2)nc2ncccn12
992	Cc1ccc(S(=O)(=O)N2C[C@@H]3C[C@H]2C[C@@H]3NC(=O)c2cccs2)cc1Cl
788	COc1ccc2[nH]cc(CCNC(=O)CCc3c(C)nc4c(c3C)c(=O)n(C)c(=O)n4C)c2c1
629	COC(=O)c1ccccc1NC(=O)Cn1cccc(-c2nc(-c3ccccc3)no2)c1=O
680	CCCCOc1ccc(-c2cc3c4nnc(CCC(=O)N5CCN(CC)CC5)n4ccn3n2)cc1
864	Cc1ccc(C)c(NS(=O)(=O)c2cc3c(s2)CCN(C(=O)C2CC2)C3)c1
734	CCc1cccc(NC(=O)C2CCCN(c3nnc4ccccn34)C2)c1 (stereo not given)
683	CCCCOc1ccc(CNC(=O)CCc2ccc3nc(CC)[nH]c3c2)cc1
977	Fc1ccccc1-c1nc(-c2cccc(-c3ccn[nH]3)c2)no1
575	CS(=O)(=O)N1C[C@H]2CCN(Cc3cccc(F)c3F)C[C@H]21
956	Cc1ccc(-c2nc3cnc(Br)cn3c2Nc2ccc3c(c2)OCCO3)cc1
985	CCCn1c(=O)sc2cc(S(=O)(=O)N3CCC(C(=O)Nc4cc(C)ccc4C)CC3)ccc21
666	O=C(Cn1cccc(S(=O)(=O)N2CCOCC2)c1=O)NCc1ccc(Cl)cc1
558	CN1CCC(N2CCN(C(=O)C3CCc4sc(C(=O)N5CCCC5)cc4C3)CC2)CC1 (stereo not given)
744	COc1ccccc1NS(=O)(=O)c1cc(N)ccc1N1CCCCC1
949	CCN(CC)S(=O)(=O)c1ccc2c(c1)N(CC(=O)NCc1cccs1)C(=O)C1CCCCN21 (stereo not given)
954	Cc1nn2c(CNS(=O)(=O)Cc3ccc(Cl)cc3)c(-c3ccccc3)nc2s1
964	COc1cc(C)c(C)cc1S(=O)(=O)NCC1CCN(C(=O)Oc2ccccc2)CC1
810	CC(C)CCSc1nnc2c(S(=O)(=O)N3CCOCC3)cccn12
859	CCc1ccc(NC(=O)C2CCN(S(=O)(=O)c3cc(C(=O)N4CCOCC4)cs3)CC2)cc1
777	Cn1nc(-c2nc(Cc3ccccc3)no2)c2c1CCN(C(=O)C1CCCO1)C2 (stereo not given)

RP-LC retention time [s]	Structure (SMILES)
901	CCCn1c(=O)sc2cc(S(=O)(=O)N3CCC(C(=O)N(C)Cc4ccco4)CC3)ccc21
1010	CSc1nc2ccc3nc(NC(=O)c4cc(C)no4)sc3c2s1
858	O=C(NCc1ccco1)c1ccc2ccnc(N3CCN(c4ccc(Cl)cc4)CC3)c2c1
611	CCC(C)NC(=O)C1CCCN(C(=O)c2cc(-c3ccccn3)n[nH]2)C1 (stereo not given)
674	O=C1CC(c2cccs2)Cc2nc(N3CCN(c4ccccn4)CC3)ncc21 (stereo not given)
887	COc1cc(OC)c(NC(=O)N2CCc3cn(C)c4cccc(c34)C2)cc1Cl
936	CCOc1ccccc1NC(=O)NC(C)C(=O)N1CCc2ccccc21 (stereo not given)
719	CCOC(=O)c1[nH]c(C)c(C(=O)N2CCC(CC(=O)NC3CCCCC3)CC2)c1C
743	CC1CC(=O)Nc2ccccc2N1C(=O)c1ccc(Cl)cc1 (stereo not given)
864	CCn1nnc2ccc(-c3noc(Cc4ccc(OC)c(OC)c4)n3)cc21
808	O=C(Nc1nc2ccccc2s1)C1CCN(C(=O)c2ccc(F)cc2)CC1
836	Cc1ccc(Nc2c(-c3cccc(Cl)c3)nc3cccc(C)n23)cc1
670	Cc1cnc(-c2ccccc2)n1C1CN(S(=O)(=O)c2cccc(F)c2)C1
1020	Cc1ccccc1-c1noc(C2CCCN2C(=O)NC2CCCCC2)n1 (stereo not given)
844	Cc1cc(F)ccc1NC(=O)C1CCN(S(=O)(=O)c2ccc3c(c2)sc(=O)n3C)CC1
668	CCN(CC)CCCNC(=O)C1CCCN(c2ncc(-c3ccc(F)cc3)cn2)C1 (stereo not given)
1060	CCC(c1cccs1)N1C(=O)[C@H]2CN(S(=O)(=O)c3cccc(Cl)c3)C[C@H]2C1=O (stereo not given in full)
681	COc1ccc(-c2nc3cc(C)ccn3c2NC(=O)CC(C)(C)C)cc1
1050	Cc1cc(Cl)ccc1OCc1nc(-c2ccc3c(c2)nnn3CCC(=O)N2CCCC2)no1
593	CCOc1ccc(CN2CCC3(CC2)CC(O)CCO3)cc1 (stereo not given)
740	CCCNC(=O)c1n[nH]c2c1CC(C)CC2 (stereo not given)
932	COc1cccc(-n2c(N3CCCC(C(=O)Nc4ccc(F)cc4)C3)nc3ccsc3c2=O)c1 (stereo not given)

Structure (SMILES)	RP-LC retention time [s]
O=C(Cn1cccc1-c1nnc(-c2ccccc2)o1)N1CCC2(CC1)OCCO2	834
CCOC(=O)c1c(N)n(CCCOC)c2nc3ccccc3nc12	645
